# US4637902A, “Mixed anhydrides of carbamic and hydroxamic acids” (Fuji Photo Film Co., Ltd., priority 1983, dated 1987)
# Test: Measurement of Decomposition Rate of Base Precursor (gelatin film on triacetyl cellulose, absorbance change)
# Type: physicochemical
# Conditions: for Half-Life Period t1/2: 140° C.; for K at 140° C. (× 10^2), first-order reaction rate constant: head multiplier × 10^2
# Procedure: Measurement of Decomposition Rate of Base Precursor About 400 mg of the base precursor of the present invention was dissolved in 25 ml of methanol. Separately, 400 mg of gelatin was dissolved in 5 ml of water with heating. After cooling, 5 ml of the above-described methanol solution was added thereto and the mixture well mixed. The resulting mixture solution was uniformly coated on a triacetyl cellulose support and dried to prepare samples. The absorbance of each of the samples at λ max (around 300 nm) was previously measured, then the sample was heated on a hot plate at a definite temperature. The change in absorbance versus time was plotted to calculate first-order reaction rate. Several examples of the reaction rate constants measured by the above-described method are given below.
SMILES,Half-Life Period t1/2 [s],"K at 140° C. (× 10^2), first-order reaction rate constant"
"CCCCN(CCCC)C(=O)ONC(=O)c1ccccc1O [Base Precursor No. (38), Salicylhydroxamic Acid N,N-Dibutylcarbamate]",7.7,9.0
"CN(C)C(=O)ONC(=O)c1ccccc1O [Base Precursor No. (1), Salicylhydroxamic Acid, N,N-Dimethylcarbamate]",10.3,6.7
CCN(CC)C(=O)ONC(=O)c1ccccc1O [Base Precursor No. (37)],18.7,3.7
